Test [1] deals with MT4. Nature of the test: Cytotoxic concentration required to reduce MT-4 cells viability by 50%. The format is functional. The note with it: Homo sapiens.
Test [2] relates to MT4. Nature of the test: Effective concentration required to inhibit HIV-1-induced cytopathicity in MT-4 cells. The format is functional, cell-based. The note with it: Homo sapiens. Background: Damage to the host cells serves as the signal in cytopathic effect assays.

pEC50: −log10 of the molar value. Where only a bound is given, the exact number is not on record here.

For `Cc1cn([C@H]2C[C@@](C)(O)[C@@H](CO)O2)c(=O)[nH]c1=O`, the CC50 in test [1] was over 500 µM. For the same compound, the negative-log EC50 (pEC50) in test [2] was under 3.30.

In turn, `Cc1cn([C@H]2C[C@](C)(O)[C@@H](CO)O2)c(=O)[nH]c1=O` had a CC50 in test [1] of over 500 µM. The compound also had a negative-log EC50 (pEC50) in test [2] of under 3.30.

Compound `Cc1cn([C@H]2C[C@](C)(O)[C@@H](COP(=O)(O)O)O2)c(=O)[nH]c1=O` yielded a half-maximal cytotoxic concentration (CC50) in test [1] of over 500 µM. Also, the negative-log EC50 (pEC50) in test [2] is 4.14.

`Cc1cn([C@H]2C[C@@](C)(O)[C@@H](COP(=O)(O)O)O2)c(=O)[nH]c1=O` gave a CC50 in test [1] of over 500 µM. Also, the negative logarithm of the EC50 (pEC50) in test [2] was 3.61.

What is called CC50 is the concentration giving 50% cytotoxicity. Read a low CC50 as greater toxicity to the cells. As a reminder, the pEC50 is the EC50 on a negative log10 scale, so that one unit is a factor of ten. Read a low pEC50 as a high EC50.

These data come from ChEMBL document CHEMBL1126103, “3'-C-branched 2'-deoxy-5-methyluridines: synthesis, enzyme inhibition, and antiviral properties” (J Med Chem, 1992).
